Consider 3 molecules from patent publication US7993660B2, “Method of increasing immunological effect” (IRx Therapeutics, Inc., priority 2007, dated 2011).

Where a SMILES comes first, the peptide text is derived from it. The star is where a group is joined. Cbz = O=C(OCc1ccccc1)*; CH2F = FC*

In assay [1] the test system is activated peripheral blood CD4+ T-lymphocytes. Nature of the assay: Caspase activation (FITC-VAD-FMK staining, flow cytometry) in activated primary CD4+ T cells. It is filed as cell-based, human. As to conditions: for inhibition of PCI-13/FasL-MV-induced apoptosis (caspase-VAD-FITC binding): CD4+, IRX-2 1:3 or IL-7, IL-15 100 ng/mL 24 hours, MV 15 μg 24 hours; for mean % of FITC-VAD-FMK+ cells ± SD: CD4+ cells, 24 hours pre-incubation (IRX-2 1:3, IL-2 100 IU/mL, IL-7/IL-15 10 ng/mL). An excerpt: (§1) The head and neck squamous cell carcinoma (H&NSCC) cell line […] was established in Applicants' laboratory and maintained as previously described. It was retrovirally transfected with the human FasL gene obtained from Dr. S. Nagata (Osaka Biosciences Institute, Osaka, Japan) as previously reported. Supernatants of transfected PCI-13-cells (PCI-13-FasL), which contained both sFasL and the 42 kDa membranous form of FasL, were used as a source of tumor-derived microvesicles (MV). Jurkat cells were obtained from American Tissue Culture Collection (ATCC, Manassas, Va.) and were transfected with CD8. The CD8+ Jurkat cells were cultured in RPMI 1640 medium supplemented with 10% (v/v) fetal bovine serum (FBS), L-glutamine and antibiotics. Human T lymphocytes were isolated from peripheral blood mononuclear cells (PBMC) obtained from consented normal donors. PBMC were isolated by Ficoll-Hypaque density gradient centrifugation (GE Healthcare Bio-Sciences Corp., Piscataway, N.J.), washed and plated for 1 hour at 37° C. in culture flasks (T162) in an atmosphere of 5% CO2 to remove CD14+ monocytes. The non-adherent T-lymphocyte fraction was collected and immediately used for experiments or cryopreserved. CD8+ T cells or CD4+ T cells were purified by positive selection using CD8 MicroBeads or CD4 MicroBeads, respectively (Miltenyi Biotec, Auburn, Calif.) using the AutoMACS system according to the manufacturer's instructions. Purified CD8+ or CD4+ T cells were then cultured for 2-3 days in AIM V medium supplemented with 10% FBS in the presence of beads coated with anti-CD3 and anti-CD28 antibodies (T Cell Activation/Expansion Kit, Miltenyi Biotec). All cells used for the above described experiments were in the log phase of growth.
(§2) CD8+ Jurkat cells or activated normal T lymphocytes were plated at 0.3×10^6 cells per well in a 96-well plate and pre-treated or not with IRX-2 or with recombinant human cytokines at a final concentration of 10 ng/mL or 100 IU/mL for 24 hours (unless otherwise noted). MV (10 μg protein per 0.3×10^6 cells) were then added for 3-24 hours. In some experiments, cells were first co-incubated with MV for 3-24 hours, then washed and treated further with IRX-2 or cytokines or treated for the indicated time period with MV and IRX-2 added simultaneously. In selected blocking experiments, anti-Fas neutralizing monoclonal antibody, ZB-4, the pan-caspase inhibitor, Z-VAD-FMK, or the specific Akt-inhibitor or specific inhibitors for caspase-3, caspase-8 and caspase-9 were added at the indicated concentrations prior to MV co-incubation.
(§3) Four color flow cytometry was performed using a […] (Beckman Coulter) equipped with Expo32 software (Beckman Coulter). Lymphocytes were gated based on morphology, and debris, MV as well as monocytes and granulocytes were excluded, collecting data on at least 10^5 cells. For the analysis of activated primary T lymphocytes, gates were restricted to the CD3^+CD8^+ or CD3^+CD4^+ T-cell subsets. Data was analyzed using Coulter EXPO 32vl.2 analysis software.
(§4) Total cellular Caspase activity was tested by intracellular staining of activated caspases using a pan caspase inhibitor, CASPACE FITC-VAD-FMK In Situ Marker (Promega, Madison, Wis.). Cells were resuspended in PBS and FITC-VAD-FMK was added at a final concentration of 5 μM. The cells were incubated for 20 minutes at 37° C., 5% CO2 and washed with PBS. Then cells were stained for cell surface receptors, fixed with 1% paraformaldehyde and analyzed by flow cytometry. The specific activation of caspase-3 and caspase-7 was measured using the VYBRANT FAM caspase-3 and -7 Assay Kit from Invitrogen (Carlsbad, Calif.) according to the manufacturers' instructions. Briefly, cells were resuspended in PBS and stained with a 150× dilution of the carboxyfluorescein (FAM)-labeled FMK-caspase inhibitor for 60 minutes at 37° C., 5% CO2. Then the cells were washed in wash buffer and fixed with 1% paraformaldehyde.
(In flow cytometry, cells or beads pass a laser one at a time.)

In assay [2] the test system is activated peripheral blood CD8+ T-lymphocytes. The experiment in a line: Caspase activation (FITC-VAD-FMK staining, flow cytometry) in activated primary CD8+ T cells. To be noted: for inhibition of PCI-13/FasL-MV-induced apoptosis (caspase-VAD-FITC binding): CD8+, IRX-2 1:3 or IL-7, IL-15 100 ng/mL 24 hours, MV 15 μg 24 hours; for mean % of FITC-VAD-FMK+ cells ± SD: CD8+ cells, 24 hours pre-incubation (IRX-2 1:3, IL-2 100 IU/mL, IL-7/IL-15 10 ng/mL). The class given is cell-based, human.
From the text: as §1, §2, §3, §4

Assay [3] concerns CD8+ Jurkat cells. The class given is cell-based. To be noted: 24 hours pre-treatment (IRX-2 1:3; IL-7, IL-15 10 ng/mL), PCI-13/FasL-MV 15 μg 3 hours; no IRX-2 lane 50%. How it is done:
as §2
Total cellular Caspase activity was tested by intracellular staining of activated caspases using a pan caspase inhibitor, CASPACE FITC-VAD-FMK In Situ Marker (Promega, Madison, Wis.). […] Then cells were stained for cell surface receptors, fixed with 1% paraformaldehyde and analyzed by flow cytometry. The specific activation of caspase-3 and caspase-7 was measured using the VYBRANT FAM caspase-3 and -7 Assay Kit from Invitrogen (Carlsbad, Calif.) according to the manufacturers' instructions. […]

The next assay has as its system caspase-3 and caspase-7. The experiment in a line: Caspase-3/-7 activation (caspase 3/7-FAM flow cytometry, Western immunoblot) in CD8+ Jurkat cells. It is filed as cell-based, human. As to conditions: IRX-2 1:3 24 hours pre-treatment; zVAD 20 μM; ZB4 10 μg/mL; MV 10 μg 3 hours. How it is done:
To determine total or phosphorylated forms of Akt, Bcl-2, CD3ζ, caspase-3, JAK3, STAT5, FLIP, and Mcl-1, Jurkat CD8+ cells or purified activated CD8+ or CD4+ T-cells were co-incubated with MV at the indicated concentration and/or with IRX-2 (1:3 final dilution) for the indicated period of time at 37° C. The cells were then washed, centrifuged at 4° C. and lysed in equal volumes of ice-cold lysis-buffer (50 mM Tris-HCL pH 7.5, 150 mM NaCl, 0.5% Nonidet P-40) and protease inhibitor cocktail (Pierce Chemical Co., Rockford, Ill.). After lysis, the homogenates were clarified by centrifugation. The supernatants were isolated, and boiled for 5 minutes in 5× Laemmli sample buffer. […]
Total cellular Caspase activity was tested by intracellular staining of activated caspases using a pan caspase inhibitor, CASPACE FITC-VAD-FMK In Situ Marker (Promega, Madison, Wis.). […] Then cells were stained for cell surface receptors, fixed with 1% paraformaldehyde and analyzed by flow cytometry. The specific activation of caspase-3 and caspase-7 was measured using the VYBRANT FAM caspase-3 and -7 Assay Kit from Invitrogen (Carlsbad, Calif.) according to the manufacturers' instructions. […] The cells were analyzed by flow cytometry with the fluorescein measured on the FL1 channel. […]

Assay [4] concerns CD8+ Jurkat cells. The experiment in a line: Loss of mitochondrial membrane potential (JC-1) in CD8+ Jurkat cells. The class given is cell-based, human. As to conditions: IRX-2 1:3 24 hours pre-treatment, MV 10 μg 24 hours. How it is done: The loss of mitochondrial membrane potential (MMP) as a hallmark of apoptosis was measured using the MITOPROBE JC-1 Assay Kit from Invitrogen (Carlsbad, Calif.). The cationic dye JC-1 (5,5′, 6,6′-tetrachloro-1,1′, 3,3′-tetraethylbenzimidazolylcarbocyanine iodide) exists in healthy cells as a green monomer in the cytosol and also accumulates as red aggregates in the mitochondria. In apoptotic and necrotic cells, JC-1 remains only in the cytoplasm due to mitochondrial depolarization, which can be detected by flow cytometry as a decrease in the red/green fluorescence intensity ratio. CD8+ Jurkat cells or activated T lymphocytes were incubated in PBS containing 2 μM of JC-1 for 30 minutes at 37° C., 5% CO2. […] The cells were analyzed using a flow cytometer immediately after staining.
CD8+ Jurkat cells were analyzed by flow cytometry for a decrease in red fluorescence of the cationic dye JC-1, indicating a loss of MMP. Percentage of JC-1 red-negative cells were determined in cultures of CD8+ Jurkat cells after no treatment, 24 hours treatment with MV (10 μg) alone (no IRX) or pre-treated for 24 hours with IRX-2 (1:3 dilution) or MV in combination with the apoptosis-inhibitor Z-VAD-FMK (pan-caspase inhibitor; conc) or ZB4 (anti-Fas neutralizing mAb, conc/dose). […]

Setting [5] is: Table 2A MV-induced apoptosis, then 10 μg MV 24 hours.
[6] abbreviates: Table 2B CH-11 Ab-induced apoptosis, then 400 ng/mL CH-11 Ab 24 hours.

For “IL-15: human recombinant survival cytokine, purchased from Peprotech”, the “inhibition of PCI-13/FasL-MV-induced apoptosis (caspase-VAD-FITC binding)” value in assay [1] and in assay [2] was “similarly effective compared to IRX-2” each time. In addition, the “mean % of FITC-VAD-FMK+ cells ± SD” value stood at 16.7 ± 2.1% in assay [1] (setting [5]), 21.1 ± 5.3% in assay [1] (setting [6]), 16.8 ± 6.2% in assay [2] (setting [5]) and 28.8 ± 3.1% in assay [2] (setting [6]). In addition, the “apoptotic cells (activated caspase-VAD-FITC binding CD8+ Jurkat cells)” value in the assay on CD8+ Jurkat cells [3] is reported as “neither IL-7 nor IL-15 alone was able to reduce the level of apoptosis below the control MV-induced level”.

With “IL-7: human recombinant survival cytokine, purchased from Peprotech”, the “inhibition of PCI-13/FasL-MV-induced apoptosis (caspase-VAD-FITC binding)” value in assay [1] and in assay [2] was “similarly effective compared to IRX-2” each time. Moreover, the “mean % of FITC-VAD-FMK+ cells ± SD” value in assay [1] (setting [5]) was 34.5 ± 1.9%; in assay [1] (setting [6]), 31.8 ± 10.6%; in assay [2] (setting [5]), 49.5 ± 3.5%; in assay [2] (setting [6]), 37.7 ± 1.4%. In addition, in the assay with CD8+ Jurkat cells [3], the “apoptotic cells (activated caspase-VAD-FITC binding CD8+ Jurkat cells)” value is reported as “neither IL-7 nor IL-15 alone was able to reduce the level of apoptosis below the control MV-induced level”.

Regarding `COC(=O)C[C@H](NC(=O)[C@H](C)NC(=O)[C@@H](NC(=O)OCc1ccccc1)C(C)C)C(=O)CF` [zVAD] (Cbz-Val-Ala-Asp(OMe)-CH2F), in the assay with caspase-3 and caspase-7, the “MV-induced induction of caspase-3 and -7 activity (caspase-3/-7-FAM MFI)” value is on record as “completely prevented”. Moreover, the “MV-induced loss of mitochondrial membrane potential (JC-1 red-negative cells)” value with CD8+ Jurkat cells [4] was “block was comparable to that provided by the two inhibitors”.
